US20140134136A1, “COMPOSITIONS AND METHODS FOR AUDITORY THERAPY” (MASSACHUSETTS EYE AND EAR INFIRMARY, priority 2012, published 2014)
“Also recorded” adds a separate entry of the source.

Experiments:
[1] = system: Atoh1-ER-DsRed fusion protein; experiment: Nuclear translocalization assay (DsRed fluorescence of isolated nuclei); type: cell-based; settings: for DsRed fluorescence in the nuclear fraction: HEK cells transfected with CMV-Atoh1-ER-DsRed, p<0.05; for localization of Atoh1-ER-DsRed to the nucleus: HEK cells, graded doses; for time to complete cytoplasmic localization of the fusion protein after removal from the culture media: removal of 4OHT/tamoxifen from culture media
Experimental: Constructs were generated to express inducible Atoh1-ER fusion proteins (FIG. 1).
HEK cells were cultured until 50% confluent in 6-well culture dishes (type) then subjected to transfection using 3:1 target DNA to Fugene 6 Transfection Reagent (ROCHE). […] Cells were then processed for cytosolic and nuclear fractionation (BioVision). The isolated nuclear fraction collected from each of 5 sample wells per condition was mounted to a coverslip and average pixel density from 5 regions of interest (206.5×165.2 pixel at 20× magnification) was measured with a Cy3 ([…]) filter on a Zeiss epifluorescent microscope using MetaMorph software.

Atoh1 mRNA = Atoh1 mRNA expression by RT-PCR and qPCR; type: cell-based; settings: HEK cells transiently transfected with Atoh1-ER-DsRed; different doses
Experimental: Transiently transfected HEK cells were incubated with different doses of 4OHT.
Next, total RNA was extracted from the cells by adding 1 ml Trizol reagent (Invitrogen) to each well for 5 min, cells were scraped into a 1.5 ml tube (1 tube/well), incubated with […] chloroform (in hood) for 2 min centrifuged for 20 min at 12,000 g at 4° C., supernatant was collected in a new 1.5 ml tube, incubated with 1:1 equivalent volume of 2-propanol equal volume to supernatant, and centrifuged through the RNeasy mini kit columns at 8000 g for 15 sec. RNA was eluted from the column by adding […] RW1, centrifuging the column at 8000 g 15 s, adding […] washes of RPE2 and re-centrifuging at 8000 g 15 s, adding one spin to dry membrane (10,000 g, 1 min), and eluting the RNA by adding […] RNAse free water into new 1.5 ml tube and centrifuging a final time at 8000 g for 15 s. […]
For quantitative PCR (qPCR) analysis, 300 μL of qPCR Master Mix (Invitrogen) was added to a PCR tube with 300 μL dH2O, which was then divided into 5 tubes (120 μL each). […] Quantitative PCR was performed and the amount of RNA was determined Delta delta Ct measurements were calculated for each treatment group, and then were normalized to fold change from groups incubated in the absence of tamoxifen. […]

myosin 7a = experiment: Myosin 7a immunolabeling in transfected HEI OC1 cells; type: cell-based
Experimental: To test this, the expression of myosin 7a, which is a downstream target of Atoh1 signaling, was measured in HEI OC1 cells transfected with the Atoh1-ER-DsRed construct.

[2] = system: Atoh1 5′ enhancer/promoter region; experiment: Luciferase assay of Atoh1 enhancer/promoter binding; type: cell-based; settings: HEK cells stably transfected with Atoh1enhancer-luciferase and transiently with Atoh1-ER-DsRed; 72 hrs, increasing doses
Experimental: The stably transfected HEK cells were transiently transfected with either the cmv.Atoh1-ER-DsRed construct or a cmv.DsRed-ER control construct. […] All cells were also co-transfected with Renilla transfection controls.
The Atoh1 5′ enhancer/promoter region (Helms, Abney et al. 2000) was cloned into the MCS of the pGL3-Promoter Luciferase Reporter Vector (Promega), and was stably expressed on a HEK cell line using selection to […]. These cells were grown until 80% confluent on 6-well plates, and then transiently transfected with either the cmv.Atoh1 control vector, the cmv.Atoh1-ER-DsRed construct, or a cmv.DsRed-ER negative control construct using 3:1 target DNA to Fugene 6 Transfection Reagent. All cells were also co-transfected with Renilla transfection controls. […] Firefly luciferase activity was measured in a manual TD-20/20 Luminometer (Turner Designs).

[3] = system: Atoh1-ER-DsRed fusion protein; experiment: Nuclear localization in electroporated cochlear spheres; type: cell-based, mice
Description: (DAPI=blue; DsRed fluorescence=red). […] Yellow box highlights optimal conditions (+=nuclear localization in […] of cells; −/+≈50% nuclear localization; −=>0.10% nuclear localization.
Cochlear derived progenitor cells were generated and floating aggregates (cochlear spheres) propagated as previously described (Oshima et al., Journal of the Association for Research in Otolaryngology, 2007. 8(1): 18-31) with the following modifications. Cochleas were isolated from litters of P0-P3 ROSA26-GFP mice, the organs of Corti were dissected, pooled, trypsinized, triturated, and centrifuged. The pellet was re-suspended in SFM, filtered through a […] cell strainer, and cultured for 5 days in this same media supplemented with growth factors (10 ng/ml of FGF, IGF, EGF, Heparin sulfate). Floating aggregates were collected, centrifuged, triturated using a 100 μl pipette, re-suspended in 300 μl Optimem, and electroporated (8 pulses; 25 V; duration, 50 ms; interval, 100 ms with 2 mg/ml DNA in water, and incubated in 3:1 Fugene 6 overnight) using 50 μg of plasmid DNA. […] Finally, spheres from each of these groups were centrifuged, adhered to glass coverslips by incubation for 2-4 hours at 37° C. on glass coverslips coated with 1:1 poly-lysine/polyornithine, fixed in 4% paraformaldehyde for 20 minutes, washed three times in PBS, and stored at 4° C. for later analysis.

Atoh1 protein = experiment: Western blot analysis of Atoh1 protein; type: cell-based; settings: transiently transfected HEK cells; different doses for 72 hr
Description: Whole cell protein was collected and processed for Western blot analysis. Positive control samples were transfected with a flag-tagged Atoh1 construct under control of a cmv promoter (flagAtoh1) and negative control samples were transfected with the DsRedER construct.
Control samples were similarly transfected with either DsRed-ER (negative control) or a positive control vector (cmv.flagAtoh1). Cells were lysed, the whole cell protein was collected and processed for Western blot analysis using either anti-Atoh1polyclonal antibody (Developmental Studies Hybridoma Bank) or a polyclonal anti-b-actin antibody (Sigma).

[4] = system: alpha and beta isoforms of the estrogen receptor; settings: cited from earlier work
organs of Corti = experiment: Organ of Corti explants electroporated with the construct; type: cell-based, mice; settings: 1 μM tamoxifen
Description: The construct was electroporated into neonatal organs of Corti isolated from transgenic mouse pups that express GFP under control of the 5′ Atoh1 enhancer/promoter.

Atoh1 promoter/enhancer = experiment: Comparison of constructs (Atoh1 promoter/enhancer binding, mRNA transcription, protein translation); type: cell-based
Description: FIG. 1A-FIG. 1E are schematics depicting constructs used to generate an inducible Atoh1 fusion protein. FIG. 1A depicts the construct termed Flag-Atoh1-ER-DsRed. In order to measure the translocation of the fusion protein between the cytoplasm and […], a construct was engineered to include the DsRed transgene. To aid in the detection of Atoh1 (Atonal homolog 1), several experimental constructs were engineered to include one or two consecutive flag-tagged sequences (Vallier, Mancip et al. 2001). To obtain the tamoxifen sensitive Atoh1 construct, PCR cloning primers were designed so that 1) an EcoRI site was placed on the 5′ end and a Kozac sequence (CACC) was placed upstream of the Atoh1 start codon; 2) the Atoh1 stop codon (TAG) was deleted; 3) the flag tagged Atoh1 sequence was linked to an Estrogen Receptor (ER) sequence by the sequence […] (SEQ ID NO: 1) encoding a polypeptide linker; 4) the ER stop codon (TAG) was deleted; 5) the ER sequence was linked to a DsRed sequence by the sequence […] (SEQ ID NO: 2) encoding a polypeptide linker; and 6) a Not I site was included on the 3′ end. The linker sequences were designed to translate into multiple proline sequences, which provide an increased degree of freedom for the fusion protein subunits. […]

Compound | localization of Atoh1-ER-DsRed to the nucleus [1] | time to complete cytoplasmic localization of the fusion protein after removal from the culture media [1] [weeks] | Atoh1 mRNA expression (Atoh1 mRNA) | binding to / activation of the enhancer/promoter region of the Atoh1 gene [2] | preference of binding to estrogen receptor isoforms [4] | other results
CC/C(=C(\c1ccc(O)cc1)c1ccc(OCCN(C)C)cc1)c1ccccc1 [4OHT] | dose-dependent manner | ≤ 2 | upregulates the expression of Atoh1 in a dose-dependent manner; also recorded: increase in Atoh1 mRNA expression | dose-dependent increase; also recorded: induced activation of the Atoh1 enhancer region | – | DsRed fluorescence in the nuclear fraction ([1]; 1 nM 4OHT for 72 hrs): 848.0+/−29.33 au; DsRed fluorescence in the nuclear fraction ([1]; 1 mM 4OHT for 72 hrs): 3,200.9+/−156.95 au; myosin 7a labeling (myosin 7a; HEI OC1 cells transfected with Atoh1-ER-DsRed, differentiating conditions (39° C.), 1 mM 4OHT for three days, p<0.001 vs vehicle): 79%; nuclear localization of the fusion protein ([3]; cochlear spheres from ROSA26-GFP mice, 1 nM, after 48 hrs): punctate nuclear localization; minimum effective dose ([3]; for 2-7 days (FIG. 3)): 1 nM; Atoh1 protein levels (Atoh1 protein): increased the concentration of cytosolic Atoh1 protein in a dose-dependent manner; also recorded: increase in Atoh1 protein levels
C[C@]12CC[C@@H]3c4ccc(O)cc4CC[C@H]3[C@@H]1CC[C@@H]2O [17-beta-estradiol] | – | – | – | – | binds equally well to both receptors | –
O=c1c(O)c(-c2ccc(O)c(O)c2)oc2cc(O)cc(O)c12 [Quercetin] | – | – | – | – | selectively binds to the estrogen receptor beta (ERβ) | –
O=C(c1ccc(OCCN2CCCCC2)cc1)c1c(-c2ccc(O)cc2)sc2cc(O)ccc12 [raloxifene] | – | – | – | – | bind preferentially to the alpha receptor | –
CC/C(=C(\c1ccccc1)c1ccc(OCCN(C)C)cc1)c1ccccc1 [tamoxifen] | dose-dependent localization | ≤ 2 | increased the expression of Atoh1 in a dose-dependent manner | dose-dependent increase in binding | – | DsRed fluorescence against increasing Tamoxifen concentration ([1]; 1 μM): increased fluorescence compared to higher (100 μM) and lower doses (1 nM); minimum effective dose ([1]; for 2-7 days, HEK cells (FIG. 2)): 1 nM; hair cells in electroporated organs of Corti (organs of Corti): supernumerary hair cells; myosin 7a positive cells within the spheres (myosin 7a; OC1 cells transfected with Atoh1-ER-DsRed, 3 days in differentiating conditions (39° C.)): significant increase
Flag-Atoh1-ER: construct encoding a flag-tagged Atoh1-ER fusion protein without DsRed (SEQ ID NO: 16) | – | – | – | – | – | Atoh1 promoter/enhancer binding, Atoh1 mRNA transcription and Atoh1 protein translation compared with the flag-Atoh1-ER-DsRed construct (Atoh1 promoter/enhancer): on average higher than, but not significantly different from
